Results taken from patent US20200079793A1, “COMPOUNDS AND METHODS FOR MODULATING ADENOSINE A2B RECEPTOR AND ADENOSINE A2A RECEPTOR” (CORVUS PHARMACEUTICALS, INC., priority 2018, published 2020).

Experiments:
Adenosine A2B Receptor = biological target: T1, Adenosine A2B Receptor (Homo sapiens, UniProt P29275); test: Activity assay of adenosine receptor modulators, Adenosine A2B Receptor (Table 1); assay type: biochemical; details: cAMP; read-out: A2BR cAMP IC50
T1 sequence (P29275 1-332): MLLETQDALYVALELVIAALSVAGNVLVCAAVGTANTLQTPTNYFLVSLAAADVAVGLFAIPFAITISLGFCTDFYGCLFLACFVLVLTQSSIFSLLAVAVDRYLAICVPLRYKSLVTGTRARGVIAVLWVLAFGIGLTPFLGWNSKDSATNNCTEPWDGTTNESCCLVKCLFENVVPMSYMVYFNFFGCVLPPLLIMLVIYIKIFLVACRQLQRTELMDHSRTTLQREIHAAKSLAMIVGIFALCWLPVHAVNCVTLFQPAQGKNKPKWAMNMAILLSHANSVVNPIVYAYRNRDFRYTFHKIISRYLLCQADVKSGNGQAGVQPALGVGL
Protocol: (§1) Compounds (e.g., adenosine receptor modulators) were tested for its biological activity. The assay results in Table 1 indicate (+ means >1 μM; ++ means 100 nM to 1 μM; +++ means <100 nM).

Adenosine A2A Receptor = Adenosine A2A Receptor (Homo sapiens, UniProt P29274); test: Activity assay of adenosine receptor modulators, Adenosine A2A Receptor (Table 1); assay type: biochemical; details: cAMP; read-out: A2AR cAMP IC50
Protocol: as §1

A1R = biological target: T2, A1R (Homo sapiens, UniProt P30542); test: Activity assay of adenosine receptor modulators, A1R cAMP (Table 1); assay type: cell-based
T2 sequence (P30542 1-326): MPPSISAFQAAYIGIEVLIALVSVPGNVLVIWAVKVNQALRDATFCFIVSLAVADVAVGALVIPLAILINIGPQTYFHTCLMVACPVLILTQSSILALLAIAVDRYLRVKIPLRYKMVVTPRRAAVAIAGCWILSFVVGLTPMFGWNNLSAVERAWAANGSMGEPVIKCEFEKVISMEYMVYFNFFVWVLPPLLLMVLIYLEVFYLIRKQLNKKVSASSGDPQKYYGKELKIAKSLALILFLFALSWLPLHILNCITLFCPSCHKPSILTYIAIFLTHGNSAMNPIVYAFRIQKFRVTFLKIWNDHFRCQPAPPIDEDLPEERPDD
Protocol: as §1

A3R = biological target: T3, A3R (Homo sapiens, UniProt P0DMS8); test: Activity assay of adenosine receptor modulators, A3R cAMP (Table 1); assay type: cell-based
T3 sequence (P0DMS8 1-318): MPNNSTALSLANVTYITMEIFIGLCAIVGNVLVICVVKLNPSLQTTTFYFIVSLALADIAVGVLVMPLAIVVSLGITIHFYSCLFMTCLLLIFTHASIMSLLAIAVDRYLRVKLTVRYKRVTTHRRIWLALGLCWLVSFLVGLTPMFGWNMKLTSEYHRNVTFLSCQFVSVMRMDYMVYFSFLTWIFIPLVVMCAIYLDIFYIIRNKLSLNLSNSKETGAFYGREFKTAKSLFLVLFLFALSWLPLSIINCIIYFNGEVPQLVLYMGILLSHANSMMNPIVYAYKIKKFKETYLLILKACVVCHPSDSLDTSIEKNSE
Protocol: as §1

Adenosine A2A Receptor, sequence (P29274 whole entry): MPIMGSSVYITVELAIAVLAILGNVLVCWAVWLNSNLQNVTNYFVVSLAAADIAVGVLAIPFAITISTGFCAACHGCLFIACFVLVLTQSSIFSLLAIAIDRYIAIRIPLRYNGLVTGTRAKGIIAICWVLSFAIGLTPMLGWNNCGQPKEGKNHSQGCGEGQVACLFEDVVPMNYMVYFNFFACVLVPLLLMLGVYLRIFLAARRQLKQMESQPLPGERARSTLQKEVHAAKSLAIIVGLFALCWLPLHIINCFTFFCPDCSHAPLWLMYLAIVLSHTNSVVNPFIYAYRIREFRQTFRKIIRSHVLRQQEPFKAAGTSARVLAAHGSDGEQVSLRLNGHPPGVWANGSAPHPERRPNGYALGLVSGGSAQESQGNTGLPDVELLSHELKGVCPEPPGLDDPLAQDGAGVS

| Structure (SMILES) | IC50 (Adenosine A2B Receptor) | IC50 (Adenosine A2A Receptor) | IC50 (A1R) | IC50 (A3R) |
| --- | --- | --- | --- | --- |
| Cc1nc2nc(N[C@@H](C)c3cccnc3)nc(C(=O)N3CC(NC(=O)C4CCC4)C3)c2s1 [Example 75, N-[1-[2-Methyl-5-[[(S)-1-(3-pyridyl)ethyl]amino]thiazolo[4,5-d]pyrimidine-7-carbonyl]azetidin-3-yl]cyclobutanecarboxamide] | 100 to 1000 nM | < 100 nM | > 1000 nM | > 1000 nM |
| Cc1nc2nc(N[C@@H](C)c3cccnc3)nc(C(=O)N3CC(NC(=O)C4(C)CC4)C3)c2s1 [Example 76, 1-Methyl-N-[1-[2-methyl-5-[[(S)-1-(3-pyridyl)ethyl]amino]thiazolo[4,5-d]pyrimidine-7-carbonyl]azetidin-3-yl]cyclopropanecarboxamide] | 100 to 1000 nM | < 100 nM | > 1000 nM | 100 to 1000 nM |
| Cc1nc2nc(N[C@@H](C)c3cccnc3)nc(C(=O)N3CC(NC(=O)C45CC6CC(CC(C6)C4)C5)C3)c2s1 [Example 77, N-[1-[2-Methyl-5-[[(S)-1-(3-pyridyl)ethyl]amino]thiazolo[4,5-d]pyrimidine-7-carbonyl]azetidin-3-yl]adamantane-1-carboxamide] | < 100 nM | < 100 nM | > 1000 nM | 100 to 1000 nM |
| Cc1nc2nc(N[C@@H](C)c3ccccn3)nc(C(=O)N3CC(NC(=O)Nc4ccccc4)C3)c2s1 [Example 78, 1-[1-[2-Methyl-5-[[(S)-1-(2-pyridyl)ethyl]amino]thiazolo[4,5-d]pyrimidine-7-carbonyl]azetidin-3-yl]-3-phenyl-urea] | 100 to 1000 nM | < 100 nM | > 1000 nM | > 1000 nM |
| Cc1nc2nc(N[C@@H](C)c3cccnc3)nc(C(=O)N3CC(NC(=O)NC4CCCC4)C3)c2s1 [Example 79, 1-Cyclopentyl-3-[1-[2-methyl-5-[[(S)-1-(3-pyridyl)ethyl]amino]thiazolo[4,5-d]pyrimidine-7-carbonyl]azetidin-3-yl]urea] | < 100 nM | < 100 nM | > 1000 nM | 100 to 1000 nM |

Other lines, results leading:

| IC50 (Adenosine A2B Receptor) | IC50 (Adenosine A2A Receptor) | IC50 (A1R) | IC50 (A3R) | Structure (SMILES) |
| --- | --- | --- | --- | --- |
| 100 to 1000 nM | < 100 nM | > 1000 nM | > 1000 nM | Cc1nc2nc(N[C@@H](C)c3cccnc3)nc(C(=O)N3CC(NC(=O)c4ccoc4)C3)c2s1 [Example 80, N-[1-[2-Methyl-5-[[(S)-1-(3-pyridyl)ethyl]amino]thiazolo[4,5-d]pyrimidine-7-carbonyl]azetidin-3-yl]furan-3-carboxamide] |
| < 100 nM | < 100 nM | > 1000 nM | 100 to 1000 nM | Cc1nc2nc(N[C@@H](C)c3cccnc3)nc(C(=O)N3CC(NC(=O)C4CCCCC4)C3)c2s1 [Example 81, N-[1-[2-Methyl-5-[[(S)-1-(3-pyridyl)ethyl]amino]thiazolo[4,5-d]pyrimidine-7-carbonyl]azetidin-3-yl]cyclohexanecarboxamide] |
| 100 to 1000 nM | < 100 nM | > 1000 nM | > 1000 nM | Cc1nc2nc(N[C@@H](C)c3cccnc3)nc(C(=O)N3CC(NC(=O)C4CCOCC4)C3)c2s1 [Example 82, N-[1-[2-Methyl-5-[[(S)-1-(3-pyridyl)ethyl]amino]thiazolo[4,5-d]pyrimidine-7-carbonyl]azetidin-3-yl]tetrahydropyran-4-carboxamide] |
| < 100 nM | < 100 nM | > 1000 nM | > 1000 nM | Cc1cc(C)cc(C(=O)NC2CN(C(=O)c3nc(N[C@@H](C)c4cccnc4)nc4nc(C)sc34)C2)c1 [Example 83, 3,5-Dimethyl-N-[1-[2-methyl-5-[[(S)-1-(3-pyridyl)ethyl]amino]thiazolo[4,5-d]pyrimidine-7-carbonyl]azetidin-3-yl]benzamide] |
